These results are taken from patent EP3479863B1, “COMPOSITIONS, METHODS AND ARTICLES CONCERNING PHARMACEUTICAL NITRIC OXIDE AND CONTROLLED PATIENT DELIVERY SYSTEMS THEREOF” (Mallinckrodt Pharmaceuticals Ireland Limited, priority 2010, dated 2012).

For series [1] the following is noted: two lines for one acid = two pKa values; cited from earlier work.
Series [2] is described as follows: NO release from powdered acids hit by single 50 nL sodium nitrite droplets, measured with NO analyzer. The conditions noted are these: Example 2; for Time to 90% AUC: 7 mg finely ground powder per well, 50 nL droplet of 6M NaNO2, air flow 500 mL/minute; for NO release kinetics: comparison in words, FIG. 12 and FIG. 13. The protocol:
Powdered acids of different acidity (TABLE 1) and reducing capacity, or mixtures at equal weight ratios thereof, were tested for their ability to promote NO release from concentrated aqueous solutions of sodium nitrite. Acids were finely ground and about 5-7 mg placed into wells of a reaction plate contained within a reaction chamber equipped with a microvalve capable of dispensing single 50 nL liquid droplets of sodium nitrite into each well. The reaction chamber was continuously flushed with air at defined flow rates and the NO concentration in the air measured with a […]® NO Analyzer 280i. When NO concentrations exceeded the measurement range of the NO analyzer, the air stream was diluted with a nitrogen stream of defined flow rate prior to measurement and the measured NO concentration corrected for the dilution factor. 50 ml of 6M NaNO2 stock solution was prepared and degassed for 15 minutes. 10 mL of the stock solution was filled into a liquid reservoir feeding a microvalve capable of dispensing single 50 nL liquid droplets sequentially into each of six wells of a reaction plate contained within a reaction chamber. The air flow rate through the reaction chamber was set to 500 mL/minute. The air flow was diluted with nitrogen gas to a flow rate of 1586 mL/minute to allow measurement of the entire NO peak with a […]® NO Analyzer 280i. The NO analyzer was calibrated using a 45 ppm NO calibration gas prior to the experiment. […] The microvalve fired a 50 nL droplet into each well. The timecourse of NO production was measured with the NO Analyzer. The following time parameters were analyzed for each NO peak: AUC, time to reaching 90% of the AUC, and maximum peak NO concentration.

A short description of series [3]: NO release from croconic acid coated MAGNA nylon tape versus particulate croconic acid, single 50 nL droplets. The settings on record: single 50 nL droplets of 6M NaNO2. On the procedure:
10 grams of croconic acid were milled for 5 minutes using a bench top micromill and sifted through a 32 µm sieve. 100 mg of milled acid were suspended into 1 mL of absolute MeOH supplemented with 2% v/v cornstarch and 0.05% v/v glycerol. The yellow-orange suspension was spread evenly as a single coat using an acid resistant brush onto a 5 mm by 18 inch MAGNA® hydrophobic nylon tape of 1 .2 µm pore size. The tape was air-dried for 30 min by suspending it horizontally at both ends. The croconic acid formed a dark yellow slightly powdery coating on top of the nylon membrane; the average surface density of croconic acid deposited on the tape was 2.66 mg/cm^2.
NO release in response to single 50 nL droplets of 6M NaNO2 is shown in FIG 14 and TABLE 3, compared to the NO release from croconic acid powder. The croconic acid coated tape produced 85.3% of the NO compared to the bulk croconic acid powder, based upon the AUC.
Particulate croconic acid of particle size < 20µm produced by dry-milling for 45 min was formulated as 500 mg/ml suspension in USP ethanol by 10 min of sonication with additives of 0.05% v/v glycerol and 2% v/v starch and coated onto MAGNA® hydrophobic nylon tape in two sequential air-dried coats, yielding an average croconic acid surface density of 4.42 mg/cm^2.
NO release in response to single 50 nL droplets of 6M NaNO2 is shown in FIG. 15 and TABLE 4, compared to the NO release from particulate croconic acid. The croconic acid coated tape yielded 93.9% of the NO compared to the bulk croconic acid powder.
In another example, the procedure of the preceding paragraph was repeated by suspending 350 mg of milled croconic acid in 1 mL of isopropanol and preparing two sequential air-dried coats on the MAGNA® hydrophobic nylon strip yielding a croconic acid deposited as a dark yellow coating on the nylon membrane. NO release in response to single 50 nL droplets of 6M NaNO2 is shown in FIG. 16 and TABLE 5, compared to the NO release from particulate croconic acid. The croconic acid coated tape yielded 84.7% of the NO compared to the bulk croconic acid powder.

For series [4] the following is noted: cited from earlier work.

In the case of `O=C(O)C(Cl)(Cl)Cl` [trichlomacetic acid], the pKa (in general, the pH at which an ionisable group is half protonated) in series [1] was 0.77.

For `O=C1O[C@H]([C@@H](O)CO)C(O)=C1O` [Ascorbic Acid, reference compound], the pKa in series [1] is listed as 11.6. In addition, in series [2], the “Time to 90% AUC” value was 13.98 s; the NO release kinetics entry was “slow, protracted and irregular”.

With `O=C(O)C(O)c1ccccc1` (centres unmarked) [Mandelic acid], in series [1], the pKa is 3.37.

Croconic Acid: the “Time to 90% AUC” value in series [3] (Example 4A, suspension in MeOH, single coat, 1.2 µm pore size tape) stood at 0.79 s; in series [3] (Example 4B, particle size < 20µm, suspension in USP ethanol, two coats), 0.85 s; in series [3] (Example 4C, suspension in isopropanol, two coats), 0.77 s; in series [2], 1.1 s. The NO release kinetics entry in series [2] is “superior NO release kinetics over ascorbic acid while releasing similar quantities of NO”.

Consider `O=C(O)C(O)c1ccccc1F` (centres unmarked) [2-Fluoro-mandelic acid], for which the pKa in series [1] is <3.4.

On to `O=C(O)C(O)c1c(F)c(F)cc(F)c1F` (centres unmarked) [2,3,5,6-Tetrafluoromandelic acid], for which the pKa in series [1] was <<3.4.

For the compound nonylphenol ethoxylate [NP-9], the surface tension in series [4] (0.1 % v/v aqueous solution at 25°C) was 30 Dynes/cm. For the same compound, in series [4] (at 25°C), the viscosity was 243 cp.
